The values that follow are results of earlier work, collected in US6746697B2, “Composition containing Heliopsis longipes root extract and oral carrier” (Phytos, Inc., priority 2000, dated 2004).

SMILES strings stand for the structures.

Data set [1] has as its system certain microorganisms (Gram positive and Gram negative bacteria). Particulars: purified affinin from ethanol extract; toxicity varying for Gram positive and Gram negative bacteria.
Data set [2] concerns mice. The note with it: orally to mice.

`C/C=C/C=C\CC/C=C/C(=O)NCC(C)C` [affinin, N-isobutyl-2E, 6Z, 8E-decatrienamide]: the toxicity to microorganisms result in data set [1] is reported as “toxic to certain microorganisms”. In data set [2] (aqueous solution, doses from 2.5 to 10.0 mg/kg), the analgesic effect result is on record as “analgesic effect”. In addition, in data set [2] (highest dose (10.0 mg/kg)), the deaths entry is given as “two out of five deaths” and the “effect on normal motor activity” value is recorded as “severe depression of normal motor activity”.
